{"source": "PubChem BioAssay AID2060510", "about": "(Molecular Pharmacology Branch, DTP, NCI, 2025);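 also: spheroids exposed to the agents for 7 days before readout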;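 as to viability, T/C: percent of luminescence signal in DMSO vehicle wells taken as 100% viability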", "tested_on": "439559-082-T-J2-PDC spheroids viability", "assay": "Anticancer human tumor 439559-082-T-J2-PDC patient-derived colon adenocarcinoma cell line growth inhibition [GQUAD]", "settings": "for IC50: curve of first compound; for viability, T/C: stronger effect = lower value", "summary_of_the_method": "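Tumor cells were grown as complex spheroids with HUVEC endothelial cells and mesenchymal stem cells as stroma. G-quadruplex stabilizers were combined with targeted agents over half-log dilutions from near the clinical Cmax, or from 10 microM.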", "key": {"[1]": {"settings": "second compound 0.0316 µM, first compound 0.0316 µM"}, "[2]": {"settings": "second compound 0.0316 µM, first compound 0.1 µM"}, "[3]": {"settings": "second compound 0.0316 µM, first compound 0.316 µM"}, "[4]": {"settings": "second compound 0.0316 µM, first compound 1 µM"}, "[5]": {"settings": "second compound 0.0316 µM, first compound 3.16 µM"}, "[6]": {"settings": "second compound 0.0316 µM, first compound 10 µM"}, "[7]": {"settings": "second compound 0.1 µM, first compound 0.0316 µM"}, "[8]": {"settings": "second compound 0.1 µM, first compound 0.1 µM"}, "[9]": {"settings": "second compound 0.1 µM, first compound 0.316 µM"}, "[10]": {"settings": "second compound 0.1 µM, first compound 1 µM"}, "[11]": {"settings": "second compound 0.1 µM, first compound 3.16 µM"}, "[12]": {"settings": "second compound 0.1 µM, first compound 10 µM"}, "[13]": {"settings": "second compound 0.316 µM, first compound 0.0316 µM"}, "[14]": {"settings": "second compound 0.316 µM, first compound 0.1 µM"}, "[15]": {"settings": "second compound 0.316 µM, first compound 0.316 µM"}, "[16]": {"settings": "second compound 0.316 µM, first compound 1 µM"}, "[17]": {"settings": "second compound 0.316 µM, first compound 3.16 µM"}, "[18]": {"settings": "second compound 0.316 µM, first compound 10 µM"}, "[19]": {"settings": "second compound 1 µM, first compound 0.0316 µM"}, "[20]": {"settings": "second compound 1 µM, first compound 0.1 µM"}, "[21]": {"settings": "second compound 1 µM, first compound 0.316 µM"}, "[22]": {"settings": "second compound 1 µM, first compound 1 µM"}, "[23]": {"settings": "second compound 1 µM, first compound 3.16 µM"}, "[24]": {"settings": "second compound 1 µM, first compound 10 µM"}, "[25]": {"settings": "second compound 3.16 µM, first compound 0.0316 µM"}, "[26]": {"settings": "second compound 3.16 µM, first compound 0.1 µM"}, "[27]": {"settings": "second compound 3.16 µM, first compound 0.316 µM"}, "[28]": {"settings": "second compound 3.16 µM, first compound 1 µM"}, "[29]": {"settings": "second compound 3.16 µM, first compound 3.16 µM"}, "[30]": {"settings": "second compound 3.16 µM, first compound 10 µM"}, "[31]": {"settings": "second compound 10 µM, first compound 0.0316 µM"}, "[32]": {"settings": "second compound 10 µM, first compound 0.1 µM"}, "[33]": {"settings": "second compound 10 µM, first compound 0.316 µM"}, "[34]": {"settings": "second compound 10 µM, first compound 1 µM"}, "[35]": {"settings": "second compound 10 µM, first compound 3.16 µM"}, "[36]": {"settings": "second compound 10 µM, first compound 10 µM"}}, "data": [{"smiles": "CC1COCCN1c1cc(C2(O)CC3CCC(C2)O3)c2cnn(-c3ccn[nH]3)c2n1", "note": "(centres undefined) + Cc1[nH]c2ccc(F)cc2c1-c1nc2c3cccnc3c3ncccc3c2[nH]1", "values": [{"measurement": "IC50", "setting": "second compound 0.0316 µM", "result": 1690, "unit": "nM"}, {"measurement": "IC50", "setting": "second compound 0.1 µM", "result": 2590, "unit": "nM"}, {"measurement": "IC50", "setting": "second compound 0.316 µM", "result": 1450, "unit": "nM"}, {"measurement": "IC50", "setting": "second compound 1 µM", "result": 1490, "unit": "nM"}, {"measurement": "IC50", "setting": "second compound 3.16 µM", "result": 863, "unit": "nM"}, {"measurement": "IC50", "setting": "second compound 10 µM", "result": 867, "unit": "nM"}, {"measurement": "viability, T/C", "setting": "[1]", "result": 84.5, "unit": "%"}, {"measurement": "viability, T/C", "setting": "[2]", "result": 84.2, "unit": "%"}, {"measurement": "viability, T/C", "setting": "[3]", "result": 78.2, "unit": "%"}, {"measurement": "viability, T/C", "setting": "[4]", "result": 58.6, "unit": "%"}, {"measurement": "viability, T/C", "setting": "[5]", "result": 38.9, "unit": "%"}, {"measurement": "viability, T/C", "setting": "[6]", "result": 39.5, "unit": "%"}, {"measurement": "viability, T/C", "setting": "[7]", "result": 89.5, "unit": "%"}, {"measurement": "viability, T/C", "setting": "[8]", "result": 76.3, "unit": "%"}, {"measurement": "viability, T/C", "setting": "[9]", "result": 71.1, "unit": "%"}, {"measurement": "viability, T/C", "setting": "[10]", "result": 61.9, "unit": "%"}, {"measurement": "viability, T/C", "setting": "[11]", "result": 46.7, "unit": "%"}, {"measurement": "viability, T/C", "setting": "[12]", "result": 35.2, "unit": "%"}, {"measurement": "viability, T/C", "setting": "[13]", "result": 97.2, "unit": "%"}, {"measurement": "viability, T/C", "setting": "[14]", "result": 80.2, "unit": "%"}, {"measurement": "viability, T/C", "setting": "[15]", "result": 70.8, "unit": "%"}, {"measurement": "viability, T/C", "setting": "[16]", "result": 49.9, "unit": "%"}, {"measurement": "viability, T/C", "setting": "[17]", "result": 44.6, "unit": "%"}, {"measurement": "viability, T/C", "setting": "[18]", "result": 37.3, "unit": "%"}, {"measurement": "viability, T/C", "setting": "[19]", "result": 83.8, "unit": "%"}, {"measurement": "viability, T/C", "setting": "[20]", "result": 77.3, "unit": "%"}, {"measurement": "viability, T/C", "setting": "[21]", "result": 70.2, "unit": "%"}, {"measurement": "viability, T/C", "setting": "[22]", "result": 55, "unit": "%"}, {"measurement": "viability, T/C", "setting": "[23]", "result": 40.3, "unit": "%"}, {"measurement": "viability, T/C", "setting": "[24]", "result": 33.4, "unit": "%"}, {"measurement": "viability, T/C", "setting": "[25]", "result": 85.7, "unit": "%"}, {"measurement": "viability, T/C", "setting": "[26]", "result": 67.8, "unit": "%"}, {"measurement": "viability, T/C", "setting": "[27]", "result": 63.5, "unit": "%"}, {"measurement": "viability, T/C", "setting": "[28]", "result": 51, "unit": "%"}, {"measurement": "viability, T/C", "setting": "[29]", "result": 32.8, "unit": "%"}, {"measurement": "viability, T/C", "setting": "[30]", "result": 27, "unit": "%"}, {"measurement": "viability, T/C", "setting": "[31]", "result": 75.4, "unit": "%"}, {"measurement": "viability, T/C", "setting": "[32]", "result": 74.5, "unit": "%"}, {"measurement": "viability, T/C", "setting": "[33]", "result": 57.1, "unit": "%"}, {"measurement": "viability, T/C", "setting": "[34]", "result": 52.1, "unit": "%"}, {"measurement": "viability, T/C", "setting": "[35]", "result": 33.4, "unit": "%"}, {"measurement": "viability, T/C", "setting": "[36]", "result": 27.1, "unit": "%"}]}, {"smiles": "COc1ccc([C@@H](O)c2cc(-c3ncnc4cc(N5CCOCC5)ccc34)c(F)cc2Cl)nn1", "note": "+ Cc1[nH]c2ccc(F)cc2c1-c1nc2c3cccnc3c3ncccc3c2[nH]1", "values": [{"measurement": "IC50", "setting": "second compound 0.0316 µM", "result": "> 10000", "unit": "nM"}, {"measurement": "IC50", "setting": "second compound 0.1 µM", "result": "> 10000", "unit": "nM"}, {"measurement": "IC50", "setting": "second compound 0.316 µM", "result": "> 10000", "unit": "nM"}, {"measurement": "IC50", "setting": "second compound 1 µM", "result": "> 10000", "unit": "nM"}, {"measurement": "IC50", "setting": "second compound 3.16 µM", "result": "> 10000", "unit": "nM"}, {"measurement": "IC50", "setting": "second compound 10 µM", "result": "> 10000", "unit": "nM"}, {"measurement": "viability, T/C", "setting": "[1]", "result": 97.1, "unit": "%"}, {"measurement": "viability, T/C", "setting": "[2]", "result": 98, "unit": "%"}, {"measurement": "viability, T/C", "setting": "[3]", "result": 87.8, "unit": "%"}, {"measurement": "viability, T/C", "setting": "[4]", "result": 98.1, "unit": "%"}, {"measurement": "viability, T/C", "setting": "[5]", "result": 85, "unit": "%"}, {"measurement": "viability, T/C", "setting": "[6]", "result": 95.5, "unit": "%"}, {"measurement": "viability, T/C", "setting": "[7]", "result": 111, "unit": "%"}, {"measurement": "viability, T/C", "setting": "[8]", "result": 99.5, "unit": "%"}, {"measurement": "viability, T/C", "setting": "[9]", "result": 89, "unit": "%"}, {"measurement": "viability, T/C", "setting": "[10]", "result": 93.3, "unit": "%"}, {"measurement": "viability, T/C", "setting": "[11]", "result": 98, "unit": "%"}, {"measurement": "viability, T/C", "setting": "[12]", "result": 88.5, "unit": "%"}, {"measurement": "viability, T/C", "setting": "[13]", "result": 106, "unit": "%"}, {"measurement": "viability, T/C", "setting": "[14]", "result": 93.2, "unit": "%"}, {"measurement": "viability, T/C", "setting": "[15]", "result": 92.1, "unit": "%"}, {"measurement": "viability, T/C", "setting": "[16]", "result": 86.9, "unit": "%"}, {"measurement": "viability, T/C", "setting": "[17]", "result": 83.7, "unit": "%"}, {"measurement": "viability, T/C", "setting": "[18]", "result": 75.9, "unit": "%"}, {"measurement": "viability, T/C", "setting": "[19]", "result": 99.9, "unit": "%"}, {"measurement": "viability, T/C", "setting": "[20]", "result": 101, "unit": "%"}, {"measurement": "viability, T/C", "setting": "[21]", "result": 90.5, "unit": "%"}, {"measurement": "viability, T/C", "setting": "[22]", "result": 92.6, "unit": "%"}, {"measurement": "viability, T/C", "setting": "[23]", "result": 85.8, "unit": "%"}, {"measurement": "viability, T/C", "setting": "[24]", "result": 75.6, "unit": "%"}, {"measurement": "viability, T/C", "setting": "[25]", "result": 73.1, "unit": "%"}, {"measurement": "viability, T/C", "setting": "[26]", "result": 85.1, "unit": "%"}, {"measurement": "viability, T/C", "setting": "[27]", "result": 83.2, "unit": "%"}, {"measurement": "viability, T/C", "setting": "[28]", "result": 69, "unit": "%"}, {"measurement": "viability, T/C", "setting": "[29]", "result": 69.3, "unit": "%"}, {"measurement": "viability, T/C", "setting": "[30]", "result": 77.4, "unit": "%"}, {"measurement": "viability, T/C", "setting": "[31]", "result": 84.9, "unit": "%"}, {"measurement": "viability, T/C", "setting": "[32]", "result": 93.9, "unit": "%"}, {"measurement": "viability, T/C", "setting": "[33]", "result": 83.7, "unit": "%"}, {"measurement": "viability, T/C", "setting": "[34]", "result": 82, "unit": "%"}, {"measurement": "viability, T/C", "setting": "[35]", "result": 74.4, "unit": "%"}, {"measurement": "viability, T/C", "setting": "[36]", "result": 80.8, "unit": "%"}]}]}
